Measurements from US20240115744A1, “FIBRIN-BINDING COMPOUNDS FOR IMAGING AND TREATMENT” (Collagen Medical, LLC, priority 2019, published 2024).
*1 amine or outer side, *2 acyl side, *3 side chain or, on linkers, in order; H or OH if unused. Where a SMILES comes first, the peptide text is derived from it. Bridges are numbered along the chain shown (N, C = ends). [ ]: non-standard residue; d: D form. The star is where a group is joined. NODAGA = O=C(O)CN1CCN(CC(=O)O)CCN(C(CCC(=O)*)C(=O)O)CC1; Tyr(3-Cl) = N[C@@H](Cc1ccc(O)c(Cl)c1)C(=O)O; Nicotinoyl(6-F) = O=C(c1ccc(F)nc1)*; X1 = O=C([C@@H]1CC(O)CN1[*:1])[*:2]; Hyp = O=C(O)[C@@H]1C[C@@H](O)CN1

B1: Compound 18F-7 (peptide)
peptide: {6‑(18F)fluoronicotinoyl}-Y[dE]C[Hyp][Tyr(3-Cl)]GLCYIQ-NH2
modifications: disulfide 3-8
notes: In the plate assay the tracer was mixed with 0.01-50 µM cold Compound 7; also called the fluorine-18 form of Compound 7

Legend:
[1] = biological target: T1, soluble fibrin fragment DD(E) (Homo sapiens, UniProt P02671+P02675+P02679, DEL433-453); assay: Fluorescence polarization DD(E) binding/displacement assay; conditions: for Ki: displacement of TRITC-labelled peptide from DD(E), TBS·Ca with 2% DMSO, estimated uncertainty ±10%, read-out: Ki; for Kd: sub-micromolar affinity, read-out: affinity (Kd) to fibrin as assessed by DD(E) assay
T1 construct: partial plasmin digestion of purified fibrin gel followed by size-exclusion chromatographic purification; made in house
Protocol: DD(E) was prepared using a published procedure which involved partial plasmin digestion of purified fibrin gel followed by size-exclusion chromatographic purification, and purity was assessed by SDS-PAGE. Peptides modified at the N-terminus with tetramethyl-rhodamine (TRITC) dye bind to DD(E). Direct fluorescent peptide binding to DD(E) was measured by a fluorescence polarization (FP) assay. The anisotropy (robs) of the fluorescently labeled peptides binding to DD(E) (0-20 μM) was measured in Tris buffered saline (50 mM Tris, 100 mM NaCl and 2 mM CaCl2) at fixed compound concentrations, and the data were fit to a single site model (Eq. 1) to obtain the dissociation constant (Kd) for the DD(E)·(fluorescent peptide) complex.
Displacement of the fluorescent peptide by non-fluorescent compound was measured to determine inhibition constants (Ki). In the presence of an inhibitor, an apparent dissociation constant for the fluorescent compound (Kd app) is determined using Eq. 2. The inhibition constant Ki is related to Kd app by Eq. 2, wherein Kd is the true dissociation constant of the fluorescent compound measured in the absence of inhibitor.
Non-labeled peptide binding to DD(E) was measured by a compound displacement assay, where a DD(E)/Fl·pep complex formed at fixed concentrations of DD(E) and Fl·pep was titrated with increasing concentrations of unlabeled compound. The compound was assayed by mixing DD(E) (4.0 μM, 10 μL) and TRITC (0.1 μM, 10 μL) with increasing concentrations of competing peptide (0.4-100 μM, 20 μL) in TBS·Ca with 2% DMSO in a final volume of 40 μL. Fluorescence polarization of the samples (10 μL, triplicate wells) in ascending concentrations was measured in a 384-well microplate (Corning flat black plate), using a Tecan Infinite 200 Pro fluorescence microplate reader equipped with fluorescence polarization filters, a 535 nm excitation filter and a 590 nm fluorescence emission filter. Average polarization (mP units) readings for each dilution of the compound of interest was converted to anisotropy (r) using Eq. 3.
The data defined a displacement curve (robs vs. [Peptide]), and the inhibitory binding constant, Ki, was determined by least squares fitting of the data (estimated uncertainty in Ki±10%). See Table 2 for the Ki values for the Compounds from Example 1.

[2] = Stability in rat plasma at 37° C. up to 4 h; format: in vitro ADME; conditions: after 4 h
Protocol: The six compounds identified in Example 3 (Compounds 2, 3, 4, 5, 6, and 7) were assayed for stability in rat plasma at 37° C. for up to 4 h. Compounds were dissolved in DMSO to a make a stock solution (0.6 mM). Plasma (995 μL) was spiked with peptide stock solution (5 μL). Incubations were carried at a test compound concentration of 3 μM with a final DMSO concentration of […]. The spiked plasma samples were incubated at 37° C. for 4 h. Aliquots (300 μL) were removed at 0, 0.5, 1, 2 and 4 h and reactions were terminated by adding 600 μL of cold acetonitrile with 0.1% formic acid containing carbutamide (25 μg/mL) as an internal standard. Simultaneously, a plasma sample (995 μL) containing a mixture of benfluorex, propranolol and nortriptyline (40 μM in DMSO) control compounds was also incubated alongside each batch of test compounds and terminated similarly. […] Following centrifugation, the concentration of the compound of interest in the supernatant was quantified by LCMS. […] The peak area for each detected compound was measured to determine the % remaining of each compound and the result was compared with standards of pure compound and compound immediately isolated from plasma (t=0 sample). All assay samples were analyzed in triplicate. […]

[3] = Radio-HPLC analysis of blood for identification of metabolites; format: in vivo; conditions: rat plasma 15 and 90 min after injection
Protocol: Adult male Wistar rats were anesthetized by isoflurane (1-2% in medical air). Body temperature was maintained at 37° C. using a thermo-regulated heating pad. The right femoral vein and artery were cannulated for compound injection and blood sampling, respectively. Endothelial injury was induced by crush injury to the right common carotid artery (1-2 cm proximal to the carotid bifurcation) by clamping the vessel with a hemostat for 5 minutes. Immediately following the surgical procedures, rats were placed in a micro-PET/CT scanner. Compound (200-600 μL) was injected, PET-CT images were acquired, and blood samples were drawn from the femoral artery prior to compound injection and at 2, 5, 10, 15, 30, 60, 90, 120 min post injection. Tissues were harvested at the end for ex vivo analyses.
Aliquots of the 15 and 90 min plasma samples were injected into a HPLC and fractions were collected each 30 seconds. The fractions counted were compared to pure compound injected into the same column in order to identify the number of metabolites and the fraction of intact compound circulating at each time point.

human fibrin [4] = biological target: T2, human fibrin (human, UniProt P02671 36-629; P02675 45-491; P02679 27-437, limits assumed); assay: radioactivity plate assay on immobilized human fibrin, in TBS buffer
T2 construct: also called clotted fibrin; immobilized fibrin
T2 sequence (looked up) 1: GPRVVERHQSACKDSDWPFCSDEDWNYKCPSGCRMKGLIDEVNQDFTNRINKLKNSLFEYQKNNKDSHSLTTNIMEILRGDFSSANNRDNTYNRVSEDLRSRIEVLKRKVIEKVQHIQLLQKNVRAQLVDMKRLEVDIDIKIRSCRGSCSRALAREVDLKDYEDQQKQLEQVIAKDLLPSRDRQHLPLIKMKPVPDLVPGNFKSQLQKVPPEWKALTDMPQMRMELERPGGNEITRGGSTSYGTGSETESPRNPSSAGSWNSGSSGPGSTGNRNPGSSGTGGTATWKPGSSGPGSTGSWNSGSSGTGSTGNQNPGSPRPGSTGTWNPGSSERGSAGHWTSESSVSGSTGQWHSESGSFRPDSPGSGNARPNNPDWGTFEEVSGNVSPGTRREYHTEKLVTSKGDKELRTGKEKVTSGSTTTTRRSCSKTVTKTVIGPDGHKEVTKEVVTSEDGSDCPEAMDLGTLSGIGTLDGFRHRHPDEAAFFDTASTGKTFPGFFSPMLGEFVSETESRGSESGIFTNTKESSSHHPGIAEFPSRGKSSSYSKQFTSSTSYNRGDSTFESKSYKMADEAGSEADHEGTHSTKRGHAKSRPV
T2 sequence (looked up) 2: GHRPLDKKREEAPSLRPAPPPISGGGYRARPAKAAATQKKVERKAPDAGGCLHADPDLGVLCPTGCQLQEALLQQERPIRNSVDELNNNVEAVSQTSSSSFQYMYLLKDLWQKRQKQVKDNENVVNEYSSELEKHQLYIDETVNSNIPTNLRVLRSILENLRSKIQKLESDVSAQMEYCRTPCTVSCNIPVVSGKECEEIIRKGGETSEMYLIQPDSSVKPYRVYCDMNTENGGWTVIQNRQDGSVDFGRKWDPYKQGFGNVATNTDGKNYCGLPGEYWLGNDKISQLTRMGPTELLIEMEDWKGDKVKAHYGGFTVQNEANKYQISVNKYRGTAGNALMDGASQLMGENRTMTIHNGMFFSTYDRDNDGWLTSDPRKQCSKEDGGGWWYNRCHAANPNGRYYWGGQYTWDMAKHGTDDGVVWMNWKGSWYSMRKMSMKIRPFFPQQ
T2 sequence (looked up) 3: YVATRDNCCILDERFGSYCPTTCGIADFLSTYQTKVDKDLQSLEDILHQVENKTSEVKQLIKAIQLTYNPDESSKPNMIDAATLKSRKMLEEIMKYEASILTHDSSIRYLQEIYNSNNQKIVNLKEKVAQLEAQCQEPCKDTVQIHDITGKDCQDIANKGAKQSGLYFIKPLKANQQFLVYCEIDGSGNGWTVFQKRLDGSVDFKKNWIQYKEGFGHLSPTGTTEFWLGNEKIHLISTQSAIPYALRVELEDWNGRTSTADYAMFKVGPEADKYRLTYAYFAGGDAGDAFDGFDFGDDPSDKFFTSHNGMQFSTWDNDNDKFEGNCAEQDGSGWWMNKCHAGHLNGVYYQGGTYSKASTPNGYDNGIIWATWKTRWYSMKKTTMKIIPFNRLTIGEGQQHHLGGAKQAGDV
Protocol: Human fibrinogen (1 g) was dissolved in 30 mL of TBS buffer (50 mM Tris, 150 mM NaCl, 5 mM sodium citrate, pH 7.4) and dialyzed in a Slyde-a-Lyzer (20 000 MWCO, Cassette G2) at room temperature. After two changes of buffer, the fibrinogen was centrifuged (10 min, 2000×g) to remove undissolved material. Fibrinogen concentration was determined by measuring the absorbance at 280 nm. Stock fibrinogen solution concentration was 32.1 mg/mL. Fibrin plates with alternating rows of clotted fibrin and empty wells were prepared by polymerizing fibrinogen (100 μL; 2.5 mg/mL) with thrombin (1 U/mL) in TBS·citrate supplemented with 7 mM CaCl₂ in the wells of a 96 well polystyrene microtiter plate (Immulon-II®). […] Clottable protein in individual fibrinogen batches was determined by measuring 280 nm absorbance of the soluble fraction of the solution before and after thrombin treatment, and was generally ≥96% (Fibrin concentration, 7.56 μM).
An aliquot (100 μL) from a known activity (52 μCi in 10 mL TBS buffer) of Compound ¹⁸F-7 was added to a series of 12 known concentrations (0.01-50 μM) of cold Compound 7 (550 μL) in TBS buffer and mixed well to prepare 12 stock solutions. […] All aliquots from supernatants as well as an aliquot (90 μL) from each stock solution were weighed and activity of each was measured using a Cobra 5002 gamma counter. […]

human fibrin [5] = biological target: T2, human fibrin; assay: radioactivity plate assay on immobilized human fibrin, in human plasma

Molecule	Ki [1]	Kd [1]	stability in rat plasma [2]	metabolites / intact compound in blood [3]	Kd (human fibrin [4])	Kd (human fibrin [5])
CC[C@H](C)[C@H](NC(=O)[C@H](Cc1ccc(O)cc1)NC(=O)[C@@H]1CSSC[C@H](NC(=O)[C@@H](CCC(=O)O)NC(=O)[C@@H](Cc2ccc(O)cc2)NC(=O)c2ccc(F)nc2)C(=O)N2C[C@H](O)C[C@H]2C(=O)N[C@@H](Cc2ccc(O)c(Cl)c2)C(=O)NCC(=O)N[C@@H](CC(C)C)C(=O)N1)C(=O)N[C@@H](CCC(N)=O)C(N)=O [Compound 6, -y-e-C-Hyp-Y(3-Cl)-G-L-C-Y-I-Q-] ({Nicotinoyl(6-F)}-[dY][dE]C[Hyp][Tyr(3-Cl)]GLCYIQ-NH2; disulfide 3-8)	340 nM	< 600 nM	greatest stability	–	–	–
CC[C@H](C)[C@H](NC(=O)[C@H](Cc1ccc(O)cc1)NC(=O)[C@@H]1CSSC[C@H](NC(=O)[C@@H](CCC(=O)O)NC(=O)[C@H](Cc2ccc(O)cc2)NC(=O)c2ccc(F)nc2)C(=O)N2C[C@H](O)C[C@H]2C(=O)N[C@@H](Cc2ccc(O)c(Cl)c2)C(=O)NCC(=O)N[C@@H](CC(C)C)C(=O)N1)C(=O)N[C@@H](CCC(N)=O)C(N)=O [Compound 7, -Y-e-C-Hyp-Y(3-Cl)-G-L-C-Y-I-Q-] ({Nicotinoyl(6-F)}-Y[dE]C[Hyp][Tyr(3-Cl)]GLCYIQ-NH2; disulfide 3-8)	580 nM	< 600 nM	greatest stability	–	–	–
CC[C@H](C)[C@H](NC(=O)[C@H](Cc1ccc(O)cc1)NC(=O)[C@@H]1CSSC[C@H](NC(=O)[C@@H](CCC(=O)O)NC(=O)[C@H](Cc2ccc(O)cc2)NC(=O)CCC(C(=O)O)N2CCN(CC(=O)O)CCN(CC(=O)O)CC2)C(=O)N2CC(O)C[C@H]2C(=O)N[C@@H](Cc2ccc(O)c(Cl)c2)C(=O)NCC(=O)N[C@@H](CC(C)C)C(=O)N1)C(=O)N[C@@H](CCC(N)=O)C(N)=O (stereo partly drawn) [Compound ^68Ga-16, metal not drawn] ({NODAGA}-Y[dE]C[X1][Tyr(3-Cl)]GLCYIQ-NH2; disulfide 3-8)	–	–	–	rapidly formed metabolites	–	–
B1	–	–	–	–	1600 nM	1800 nM
